Laboratory results as given in the supplement of paper PMC10307832.

Columns and labels:
Assay in all cases: relative viability (nuclei count vs DMSO), 5 days (fraction); higher = more cells survive
Obatoclax + Crizotinib = compound: COC1=CC(c2cc3ccccc3[nH]2)=N/C1=C\c1[nH]c(C)cc1C [Obatoclax] + C[C@@H](Oc1cc(-c2cnn(C3CCNCC3)c2)cnc1N)c1c(Cl)ccc(F)c1Cl [Crizotinib] (partner 1 µM)
Summary of the method: (§1)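 Relative viability is defined as nuclei in treated wells over nuclei in vehicle wells. Duplicate plates were run and medians reported. Lung cancer cell lines in 1536-well plates were dosed by pin tool one day after seeding, with one drug or with a fixed anchor-drug dose plus five library-drug doses (not always all listed) in √10 steps, and nuclei were counted after 5 days.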

Obatoclax + Trametinib = compound: COC1=CC(c2cc3ccccc3[nH]2)=N/C1=C\c1[nH]c(C)cc1C [Obatoclax] + CC(=O)Nc1cccc(-n2c(=O)n(C3CC3)c(=O)c3c(Nc4ccc(I)cc4F)n(C)c(=O)c(C)c32)c1 [Trametinib] (partner 0.02 µM)
Summary of the method: as §1

[1] = compound: CC1=CC(=NN1)NC2=CC(=NC(=N2)/C=C/C3=CC=CC=C3)N4CCN(CC4)C + CC(C)C[C@H](NC(=O)[C@H](Cc1ccccc1)NC(=O)c1cnccn1)B(O)O [Bortezomib] (partner 0.002 µM)
Summary of the method: as §1

Obatoclax + AZD7762 = compound: COC1=CC(c2cc3ccccc3[nH]2)=N/C1=C\c1[nH]c(C)cc1C [Obatoclax] + NC(=O)Nc1cc(-c2cccc(F)c2)sc1C(=O)N[C@H]1CCCNC1 [AZD7762] (partner 0.2 µM)
Summary of the method: as §1

Row | Cell Line | relative viability (Obatoclax + Crizotinib; first compound 0.01 µM) | relative viability (Obatoclax + Crizotinib; first compound 0.03162 µM) | relative viability (Obatoclax + Crizotinib; first compound 0.3162 µM) | relative viability (Obatoclax + Crizotinib; first compound 1 µM) | relative viability (Obatoclax + Trametinib; first compound 0.01 µM) | relative viability (Obatoclax + Trametinib; first compound 0.03162 µM) | relative viability (Obatoclax + Trametinib; first compound 0.1 µM) | relative viability (Obatoclax + Trametinib; first compound 0.3162 µM) | relative viability (Obatoclax + Trametinib; first compound 1 µM) | relative viability ([1]; first compound 0.08 µM) | relative viability ([1]; first compound 0.253 µM) | relative viability ([1]; first compound 0.8 µM) | relative viability ([1]; first compound 2.53 µM) | relative viability ([1]; first compound 8 µM) | relative viability (Obatoclax + AZD7762; first compound 0.01 µM) | relative viability (Obatoclax + AZD7762; first compound 0.03162 µM) | relative viability (Obatoclax + AZD7762; first compound 0.1 µM) | relative viability (Obatoclax + AZD7762; first compound 0.3162 µM) | relative viability (Obatoclax + AZD7762; first compound 1 µM) | relative viability (Obatoclax + Crizotinib; first compound 0.1 µM)
1 | HCC-78 | 0.326 | 0.34 | 0.317 | 0.314 | 0.774 | 0.717 | 1.03 | 0.547 | 0.898 | 0.456 | 0.636 | 0.582 | 0.559 | 0.214 | 0.745 | 0.669 | 0.694 | 0.633 | 0.596 | 
2 | IA-LM | 0.667 | 0.91 | 0.0663 | 0.0759 |  |  |  |  |  | 0.74 | 0.897 | 1.14 | 0.463 | 0.121 |  |  |  |  |  | 0.529
3 | LK-2 | 0.243 | 0.179 | 0.231 | 0.257 | 0.846 | 0.794 | 1.02 | 0.783 | 0.914 |  |  |  |  |  | 0.456 | 0.374 | 0.444 |  | 0.568 | 0.236
4 | NCI-H358 | 0.46 | 0.57 | 0.374 | 0.352 | 0.129 | 0.127 | 0.165 | 0.135 | 0.114 |  |  |  |  |  | 0.519 | 0.438 | 0.543 | 0.307 | 0.224 | 0.592
5 | NCI-H520 | 0.781 | 0.777 | 0.628 | 0.461 | 0.675 | 0.777 | 0.86 | 0.439 | 0.269 | 0.487 | 0.599 | 0.395 | 0.154 | 0.11 |  |  |  |  |  | 0.774
6 | NCI-H522 |  |  |  |  | 0.683 | 0.765 | 0.805 | 0.783 | 0.867 |  |  |  |  |  | 0.823 | 0.664 | 0.915 | 0.92 | 0.883 | 
7 | NCI-H661 | 0.851 |  |  | 1.03 | 0.585 | 0.553 | 0.593 | 0.493 | 0.473 | 0.741 | 0.906 | 0.839 | 0.669 | 0.203 |  |  |  |  |  | 
8 | NCI-H1299 | 0.918 | 0.944 | 0.921 | 0.492 |  |  |  |  |  | 1 | 1.05 | 1 | 0.854 | 0.211 |  |  |  |  |  | 0.959
9 | NCI-H1395 |  |  |  |  | 0.914 | 0.999 | 0.931 | 0.94 | 0.737 |  |  |  |  |  | 0.396 | 0.395 | 0.393 | 0.375 | 0.348 | 
10 | NCI-H1563 | 0.786 | 0.864 | 0.906 | 0.653 |  |  |  |  |  | 0.943 | 0.874 | 0.863 | 0.714 | 0.428 |  |  |  |  |  | 0.881
11 | NCI-H1648 |  |  |  |  | 0.52 | 0.406 | 0.559 | 0.51 | 0.457 |  |  |  |  |  | 0.701 | 0.754 | 1 | 0.77 | 0.886 | 
12 | NCI-H1650 | 0.892 | 1.01 | 0.699 | 0.297 | 0.763 | 0.724 | 0.652 | 0.36 | 0.303 | 0.209 | 0.191 | 0.182 | 0.183 | 0.19 |  |  |  |  |  | 1.05
13 | NCI-H1703 | 0.762 | 0.697 | 0.348 | 0.311 |  |  |  |  |  | 0.261 | 0.319 | 0.236 | 0.174 | 0.117 | 0.135 |  |  | 0.138 | 0.126 | 0.394
14 | NCI-H1793 |  |  |  |  | 0.341 | 0.458 | 0.445 | 0.447 | 0.42 |  |  |  |  |  | 0.484 | 0.419 | 0.499 | 0.368 | 0.209 | 
15 | NCI-H1944 | 0.975 | 1.05 | 1.06 | 1.02 | 0.407 | 0.391 | 0.428 | 0.392 | 0.398 |  |  |  |  |  | 0.481 | 0.695 | 0.492 | 0.551 | 0.494 | 1.05
16 | NCI-H2009 | 1.07 | 0.905 | 0.355 | 0.257 | 0.32 | 0.313 | 0.252 | 0.304 | 0.192 | 1.04 | 0.54 | 1.11 | 0.423 | 0.15 |  |  |  |  |  | 0.952
17 | NCI-H2023 | 0.764 | 0.638 | 0.601 | 0.568 | 0.59 | 0.575 | 0.595 | 0.362 | 0.226 | 1.01 | 1.12 | 0.91 | 0.0954 | 0.0652 |  |  |  |  |  | 0.6
18 | NCI-H2170 | 1.13 | 1.13 | 1.2 | 1.09 | 0.877 | 0.942 | 0.904 | 0.856 | 0.861 |  |  |  |  |  | 0.851 | 0.844 | 0.801 | 0.831 | 0.743 | 1.11
19 | NCI-H2228 | 0.404 | 0.488 | 0.299 | 0.233 | 0.573 | 0.454 | 0.576 | 0.473 | 0.474 | 0.96 | 0.917 | 0.74 | 0.0986 | 0.0661 |  |  |  |  |  | 0.464
20 | NCI-H2342 |  |  |  |  | 0.859 | 0.849 | 0.907 | 0.788 | 0.861 |  |  |  |  |  | 0.614 | 0.392 | 0.51 | 0.363 | 0.389 | 
21 | SK-LU-1 | 1.03 | 0.836 | 0.403 | 0.339 | 0.454 | 0.568 | 0.447 | 0.414 | 0.311 | 1.1 | 1.28 | 1.01 | 0.429 | 0.195 |  |  |  |  |  | 0.761
22 | SK-MES-1 | 0.97 | 0.953 | 0.959 | 0.81 | 0.635 | 0.572 | 0.713 | 0.554 | 0.319 |  |  |  |  |  |  |  |  |  |  | 0.978
23 | SW 900 |  |  |  |  | 1.06 | 0.762 | 0.931 | 0.62 | 0.547 |  |  |  |  |  | 0.588 | 0.489 | 0.671 | 0.46 | 0.519 | 
24 | SW 1573 | 0.781 | 0.749 | 0.861 | 0.483 | 0.669 | 0.606 | 0.346 | 0.144 | 0.152 | 1.13 | 1.02 | 1.02 | 0.348 | 0.1 |  |  |  |  |  | 0.843
25 | UMC-11 | 0.671 | 0.615 | 0.682 | 0.346 | 0.669 | 0.674 | 0.466 | 0.643 | 0.393 | 0.718 | 0.726 | 0.636 | 0.12 | 0.08 |  |  |  |  |  | 0.53
